Values of other authors, collected in PMC11999338, “Factor XI localization in human deep venous thrombus and function of activated factor XI on venous thrombus formation and hemostasis” (Research and Practice in Thrombosis and Haemostasis, 2025).
Like-named read-outs stand apart in the source and are kept apart here.

Assays:
[1] = set-up: method as in PMID 33450079; conditions: phase I, approximately 14 days in the fed state in healthy individuals; cited from earlier work
[2] = tested on: inferior vena cava thrombus; set-up: method as in PMID 21614454; conditions: rabbits, i.v. administration; cited from earlier work
[3] = patients with atrial fibrillation; asundexian 50 mg, once daily; cited from earlier work
VTE = conditions: cited from earlier work
venous thrombus = tested on: venous thrombus; set-up: method as in PMID 23925504; conditions: mice, cited from earlier work
[4] = patients after knee arthroplasty, phase II

## Nc1ccc(-c2nc([C@H]3CCc4cc(-c5cc(Cl)ccc5-n5cnnn5)cc(=O)n43)c(F)[nH]2)c(F)n1 (stereo in doubt) [ONO-7684]
[1]
  safety and tolerability: showed safety and tolerability

## CC(C)(C)NC(=O)N1CCN(C(=O)N2C(=O)[C@H](CCCN=C(N)N)[C@H]2C(=O)O)CC1 [BMS-262084]
[2]
  silk thread-induced thrombus in the inferior vena cava: reduced

## COc1ccc(-n2nc(C(N)=O)c3c2C(=O)N(c2ccc(N4CCCCC4=O)cc2)CC3)cc1 [apixaban]
[3]
  bleeding rate: 2.4%
VTE; [4]
  major or clinically relevant nonmajor bleeding rate: ~2%

## enoxaparin
Venous thrombus; ferric chloride-induced
  venous thrombus formation: strongly inhibited
Venous thrombus; tail cut
  bleeding time: prolonged
VTE; [4]
  major or clinically relevant nonmajor bleeding rate: ~5.9%

## osocimab: human monoclonal anti-FXI antibody
VTE; human, in vivo
  major or clinically relevant nonmajor bleeding rate: approximately 4.7%
VTE; single infusion, compared with enoxaparin, patients after knee arthroplasty
  incidence of VTE at 10 to 13 days: noninferiority
